Entries after “also recorded” stand apart in the source; their conditions may differ.
What was measured:
[1] = Glass transition temperature (Tg) by thermal analysis (DSC); format: physicochemical
Description: In general, the tendency to crystallize, from a cooling melt or with reducing solvent, is low. Both devitrification and the fluidity of the melt at temperatures close to Tg, can be controlled by modifiers such as other derivative sugars and certain organic actives. The following two tables, generated as described in the Examples presented below, provide Tg and melting temperature data for a variety of HDCs suitable for use, either alone, or in a composite glass, herein.
Dissolution of synthetic corticosteroid XPDO (described below) into a TOAC melt and quenching to form the vitreous solid dose delivery system was achieved. By looking at the release of MB9 into aqueous solution, these experiments tested the compatibility of the steroid within the glass, subsequent recovery of the steroid and studied the effect that XPDO has on the properties of the delivery system formed looking at the release of MB9 into aqueous solution. TOAC (3.21 g) was pre-melted at 150° C., before being quenched to glass. The glass was finely ground with XPDO (0.15 g) before being remelted. The clear melt was again quenched to yield the composite HDC/active glass. Thermal analysis was carried out on a Rheometric Scientific Differential Scanning Calorimeter (DSC) at a heating rate of 10°/min under a nitrogen atmosphere. The following samples were prepared:
Studies were performed using the synthetic corticosteroid XPDO dissolved in DCM. The solution was spray dried in a Buchi B-191 spray drier, using an inlet temperature of 40° C. […] XPDO was incorporated at 20 wt %. The powder was completely amorphous as confirmed by thermal analysis (Tg=46° C.).

[2] = Resistance of glasses to devitrification on exposure to relative humidity; format: physicochemical
Method: Glasses were made by evaporating DCM on a hotplate set at 65° C. from a 25% solutions of TOAC (50% solutions often deposited crystals in the pipette tip). Drying was carried out for 2 hr to be certain of complete dryness. Uniform glasses were produced by using an Eppendorf-type pipette to deliver 100 μl to a slide recently placed on the hotplate and then removing about 50 μl by using the clear/expel volume of the pipette.
XPDO was therefore incorporated into a TOAC glass by dissolving both crystalline TOAC and XPDO in DCM and evaporating the solvent at 70° C. on a hotplate. XPDO was used in proportions of 10% and 20% of total solids in the final TOAC glass.
(§1) The resulting glasses were tested for their utility as controlled release matrices in two ways. First, they were assessed for their ability to resist devitrification on exposure to high RH at RT. Second, they were immersed in water or phosphate-buffered saline (PBS) to study their solubility and rate of erosion by surface recrystallization.

[3] = Controlled release of encapsulated MB9 dye from HDC glass beads/discs; format: physicochemical
Method: In the following experiments, the delivery system was preformulated, whether as a single material, or as a mixed composition. This was carried out by intimately grinding the component HDCs together, followed by careful, controlled melting in a furnace, between 120-140° C. and with normal atmosphere to form melts. The melts were quenched to glass by pouring over a brass block. This glass was then finely ground.
MB9 dye (1 or 5 wt %) was mixed with the ground glass prior to re-melting at 140° C. The melt was quenched to form small glass beads (2.5 mm diameter) which were used in controlled release experiments.
Controlled release of encapsulated dye was monitored by suspending three such beads in 25 or 50 ml of deionized water or PBS solution at ambient temperatures (27-30° C.) or at 37° C., as indicated. The media were undisturbed, except for periodic stirring and were replaced at set intervals with fresh media (generally at 72 hr intervals). Both single HDC glasses and composite HDC glasses were formed. […] The use of other HDCs as glass modifiers in the composite HDC formulations enable the tailoring of the glasses formed to yield the release characteristics desired.
In FIG. 8, the results were obtained from TOAC glass discs (6 mm×2.5 mm) with MB9 dye evenly dispersed therein at 2 wt %. Release was controlled at 25° C. with gentle stirring and media changes at regular intervals. Note the linear release of MB9 dye over a 55 day period. The results presented in FIG. 8 indicate that a pure HDC vitreous delivery vehicle system gives zero-order release rates of guest substances. The results presented in FIGS. 9-14 show variation on release rates by changing the ratios of different HDCs in the delivery systems, changing the carbohydrate backbone length and by changing the nature of the derivative on the carbohydrate backbone. In each instance it is clear that the HDC delivery systems allow a wide range of release rates that can be tailored to the guest substance and the delivery thereof.

[4] = tested on: African Green monkey kidney-derived cell line Vero; assay: In vitro toxicity of TOAC in Vero cell culture; format: cell-based; conditions: saturated solution in 10-fold serial dilution or powder added to medium; week of culture
Method: A saturated solution of TOAC in deionised distilled water (0.42 g in 20 mls) was tested for toxicity in vitro using the African Green monkey kidney-derived cell line Vero, in either a 10-fold serial dilution or by adding the TOAC powder directly to the tissue culture medium.

[5] = Encapsulation of organic substances in α-D-glucose pentaacetate glass; format: physicochemical
Method: Excellent recoveries were obtained in the encapsulation of several organic substances in the glasses. Glass discs of α-D-Glucose pentaacetate containing 2% w/w of the materials listed in Table 4 were formed by melting and quenching and then ground. Photochrome II is 5-chloro-1,3-dihydro-1,3,3-trimethyl spiro[2H-indole-2,3′-[3H]-napth[2,1-b] [1,4]-oxazine. The encapsulated materials were extracted by the suitable solvent such as methanol or water.
Pesticide-like Oxadiazon was dissolved easily in the melt of this glass at about 15% w/w without problem.

[6] = Devitrification / recrystallization of glasses immersed in liquid water; format: physicochemical
Method: However, when immersed in liquid water, the surface of the glass slowly recrystallized so that microscopic pyramidal crystals of TOAC could be seen under an inverted microscope within 15-30 min of addition of water. Crystallization was slowly progressive and within another few minutes small clusters of the typical needle shaped crystals of XPDO appeared. Since neither the needle shaped XPDO crystals nor the pyramidal TOAC crystals were adherent to the underlying glass, they were washed away readily to reveal a fresh glass surface for further slow dissolution. The complete exclusion of XPDO from the TOAC crystals ensured that this molecule, previously incorporated in the glassy TOAC matrix, was now released into the liquid phase.
as §1
The 10% α-GPAC and 10% TOPR in TOAC glasses and the 50:50 molar ratio TOAC:α-GPAC glass were also immersed in water to examine their rate of devitrification in liquid water rather than humid air.

[7] = Stability, recovery and release of XPDO from HDC glass (HPLC); format: physicochemical
Method: Release characteristics of the vitreous HDC solid dose delivery systems were studied by monitoring the release of MB9 from TOAC/XPDO glasses as shown in FIG. 15. For analysis of stability of active in the vitreous HDC solid dose delivery systems, XPDO was recovered from the samples by dissolving the glass in acetonitrile and analyzing by HPLC. There was full recovery of the guest substance even after storage at 45° C. for 4 weeks.
For analysis XPDO was extracted from the spray-dried powder by dissolving the powder in acetonitrile and then diluting the acetonitrile with sodium phosphate buffer prior to analysis by HPLC. Samples were set up to test stability of XPDO in the spray dried formulations at 45° C. and stored over saturated Zinc sulphate (RH 80-85%).
For release into sodium phosphate buffer, 0.0868 g of the spray dried powder was shaken in 10 mls of the buffer for 1 minute. The suspension was then filtered through a 0.2 μm filter. […] Bioavailability of the steroid from the delivery system was tested by immersion in an aqueous solution for a short time. Stability of the steroid in the spray-dried formulation was tested at high humidity and 45° C. (both factors are important if the application as an inhalable powder is to be successful). The results indicated a resistance to high humidity, stability in the glass and ready bioavailability in vitro tests.

SMILES: CC(=O)OCC1OC(OC2OC(COC(C)=O)C(OC(C)=O)C(OC(C)=O)C2OC(C)=O)C(OC(C)=O)C(OC(C)=O)C1OC(C)=O (stereo not drawn) [TOAC, trehalose octaacetate]
- Tg ([1]; glass quenched from melt, DSC, heating rate 10°/min, nitrogen): Tg = 50.1 °C
- Tg/° C. ([1]; single HDC glasses (Table 1)): 50 °C
- Tg/° C. ([1]; single and composite HDC glasses, mole ratios of HDCs in glass (Table 2)): 50 °C
- recrystallization of glass on storage ([2]; TOAC glass from DCM on slides, room temperature, 50-60% relative humidity): gradually recrystallized over 1 month
- Initial Form ([2]; mixed HDC glasses (Table 6)): Glass
- After RH 24 hr ([2]; mixed HDC glasses exposed to high RH (75% to 95%) at RT, 24 hr): Cryst + + + +
- devitrification at RH from 75% to 95% ([2]; thin glass films and quenched disks, RT, overnight exposure): very susceptible to devitrification at high RH; also recorded: crystallized at all RHs from 75% to 95%
- period of linear release of MB9 dye ([3]; TOAC glass discs 6 mm×2.5 mm, MB9 2 wt %, PBS, 25° C., FIG. 8): 55 days
- MB9 release characteristics ([3]; TOAC glass, MB9 dye): zero-order release characteristics
- cell division [4]: normal
- toxic effects [4]: No toxic effects were observed

SMILES: CC(C)Oc1cc(-n2nc(C(C)(C)C)oc2=O)c(Cl)cc1Cl [Oxadiazon]
- amount dissolved in the melt of the glass [5]: about 15 % w/w

SMILES: CC(=O)OC[C@H](OC(C)=O)[C@@H](OC(C)=O)[C@H](OC(C)=O)[C@@H](COC(C)=O)OC(C)=O [SHAC, sorbitol hexaacetate]
- Tg/° C. ([1]; single HDC glasses (Table 1)): −6 °C
- melting point: 100 to 104 °C

SMILES: CCCC1OC2CC3C4CC(F)C5=CC(=O)CCC5(C)C4(F)C(O)CC3(C)C2(C(=O)CO)O1 (stereo not drawn) [XPDO, 6α,9α-difluoro-11β,21-dihydroxy-16α,17α-propyl methylene dioxy-4-pregnene-3,20-dione]
- Tg ([1]; spray dried amorphous powder, XPDO incorporated at 20 wt %): 46 °C
- HDC glass stability at high relative humidity ([2]; 10% (w/v) guest in HDC (TOAC) glass, RH up to 95%, room temperature): stable when exposed to relative humidities of up to 95% at room temperature for over a month
- change in glass structure such as recrystallization ([2]; guest in TOAC glass from DCM, stored at RH of 75%, 81%, 90% and 95% for 4 weeks): no change in glass structure
- time to release of guest substance when added to liquid water ([6]; 10% (w/v) guest in HDC glass): 5 to 10 min
- time to surface recrystallization after immersion in water ([6]; glass immersed in liquid water): 15 to 30 min
- degradation on HPLC analysis ([7]; spray dried glass powder, 4 weeks storage at 45° C. and 85% RH): No evidence of any degradation
- release into sodium phosphate buffer ([7]; spray dried powder shaken in buffer for 1 minute, filtered, HPLC): effectively being released into aqueous solution
